Entries after “also recorded” stand apart in the source; their conditions may differ.
Assays:
[1] = system: rats; assay: food and kaolin consumption and body weight in rats (semaglutide, tirzepatide); assay type: in vivo, Sprague-Dawley rat
Excerpt: Adult male Sprague-Dawley rats (Charles River) weighing ~250 to 270 g (n = 45) at arrival were housed under a 12-hour/12-hour light/dark cycle in a temperature-controlled and humidity-controlled vivarium. Rats were individually housed in hanging wire-bottom cage with ad libitum access to chow diet (Purina Lab Diet 5001) or, when noted, to high-fat/high-sugar diet (60% fat diet, 12492, Research Diets) and tap water and had ad libitum access to kaolin pellets (Research Diets, K50001). Rats were exposed to kaolin for at least 5 days prior to measuring kaolin consumption in pica testing. Kaolin intake and food consumption were measured simultaneously as the presence of kaolin in the cage, and its subsequent ingestion, has usually negligible effects on the hypophagic and body weight–lowering effects of the treatments.
GIPFA-085 (GIP-085), tirzepatide, and GLP-140 were designed and produced by Eli Lilly and Company. GIP-085, GLP-140, and semaglutide (Cayman Chemical) were dissolved in 40 mM tris-HCl buffer (pH 8) and 0.02% Tween 80. For the study in mice, all drugs were injected subcutaneously at a volume of 5 ml/kg of body weight. In rats, all drugs were injected intraperitoneally, at a volume of 1 ml/kg of body weight, except when noted. In shrews, all drugs were injected intraperitoneally at a volume of 10 ml/kg of body weight.
In two separate cohorts of rats (n = 10 per group, body weight ~ 460 ± 9 g), food consumption, kaolin intake, and body weight were measured after an intraperitoneal administration of vehicle, semaglutide (10 and 100 nmol/kg), or tirzepatide (10 and 100 nmol/kg), respectively. Food and kaolin intake were measured at 3, 6, 24, and 48 hours postinjection, and body weight was measured at 0, 24, and 48 hours. For each drug, a within-subject paradigm was used, with each round of injections separated by 7 days.

[2] = system: shrews; assay: emesis, tirzepatide dose-response, shrews; assay type: in vivo, Suncus murinus; conditions: 10, 100 and 1000 nmol/kg ip; 120 min; n = 9 per group
Excerpt: Adult male shrews (S. murinus) weighing ~50 to 80 g (n = 84 total) were bred and maintained in the De Jonghe Lab (University of Pennsylvania). These animals were offspring from a colony previously maintained at the University of Pittsburgh Cancer Institute (C. Horn); a Taiwanese strain was derived from stock originally supplied by the Chinese University of Hong Kong. Shrews were singly housed in plastic cages (37.3 cm by 23.4 cm by 14 cm, Innovive) under a 12-hour/12-hour light/dark cycle in a temperature-controlled and humidity-controlled environment. Animal were fed ad libitum with a mixture of feline (75%, Laboratory Feline Diet 5003, Lab Diet) and mink food (25%, High Density Ferret Diet 5LI4, Lab Diet) and had ad libitum access to tap water except where noted.
We then evaluated the emetogenic actions of tirzepatide (10, 100, and 1000 nmol/kg) or vehicle in a different cohort of shrews (n = 9). The animals were habituated to the experimental conditions as described above. Treatments were separated by 7 days. Emetic episodes were recorded and quantified as described above.

[3] = system: patients; conditions: human, in vivo; cited from earlier work

Compound	kaolin intake ([1]; 100 nmol/kg ip, n = 10 per group, vs vehicle)	kaolin consumption, semaglutide vs tirzepatide ([1]; 100 nmol/kg ip, n = 10 to 20 per group)	kaolin consumption vs vehicle, tirzepatide ([1]; tirzepatide, rats (dose not stated at this place))	emesis [2]	patients reporting nausea [3] [%]
CC[C@H](C)[C@H](NC(=O)[C@H](CC(C)C)NC(=O)[C@H](Cc1c[nH]c2ccccc12)NC(=O)[C@H](CCC(N)=O)NC(=O)[C@@H](NC(=O)[C@H](Cc1ccccc1)NC(=O)[C@H](C)NC(=O)[C@H](CCCCNC(=O)COCCOCCNC(=O)COCCOCCNC(=O)CC[C@H](NC(=O)CCCCCCCCCCCCCCCCCCC(=O)O)C(=O)O)NC(=O)[C@H](CCC(N)=O)NC(=O)[C@H](C)NC(=O)[C@@H](NC(=O)[C@H](CCCCN)NC(=O)[C@H](CC(=O)O)NC(=O)[C@H](CC(C)C)NC(=O)C(C)(C)NC(=O)[C@@H](NC(=O)[C@H](CO)NC(=O)[C@H](Cc1ccc(O)cc1)NC(=O)[C@H](CC(=O)O)NC(=O)[C@H](CO)NC(=O)[C@@H](NC(=O)[C@H](Cc1ccccc1)NC(=O)[C@@H](NC(=O)CNC(=O)[C@H](CCC(=O)O)NC(=O)C(C)(C)NC(=O)[C@@H](N)Cc1ccc(O)cc1)[C@@H](C)O)[C@@H](C)O)[C@@H](C)CC)[C@@H](C)CC)C(C)C)C(=O)N[C@@H](C)C(=O)NCC(=O)NCC(=O)N1CCC[C@H]1C(=O)N[C@@H](CO)C(=O)N[C@@H](CO)C(=O)NCC(=O)N[C@@H](C)C(=O)N1CCC[C@H]1C(=O)N1CCC[C@H]1C(=O)N1CCC[C@H]1C(=O)N[C@@H](CO)C(N)=O [tirzepatide]	causes significant kaolin intake	induces less kaolin consumption in rats compared to equipotent doses of semaglutide	still significantly elevated compared to vehicle-treated animals	complete absence of emesis; also recorded: no emesis occurred; also recorded: complete absence of any emetic episode	–
AMG 133: bispecific molecule engineered by conjugating a GIPR antagonizing antibody with a GLP-1R agonist	–	–	–	–	100
